Assay results as given in the NIST ThermoML archive (doi:10.1016/j.fluid.2018.01.023).
Numbers after ± are expanded uncertainties.

Assay: xn = mol fraction of the nth substance listed
Details: 92 K, Liquid, Buoyancy - hydrostatic balance with magnetic suspension - one sinker

mass density (138.3 kPa, x1 = 0.967) [kg/m3]	mass density (1039.4 kPa, x1 = 0.952) [kg/m3]	mass density (159.1 kPa, x2 = 0.884) [kg/m3]	Compound
650.5 ± 1.2	651.3 ± 0.9	–	CC [ethane] + N#N
–	–	451 ± 0.7	N#N [nitrogen] + C
